Test results reported in patent US7189758B2, “Glucocorticoid mimetics, methods of making them, pharmaceutical formulations, and uses thereof” (Boehringer Ingelheim Pharmaceuticals, Inc., priority 2002, dated 2007).

Biological target: T1, human glucocorticoid receptor (GR) complex (Homo sapiens, UniProt P04150)
T1 construct: made in house; host or cells: insect cells (baculovirus expression), used as crude lysate
T1 sequence (P04150 1-777): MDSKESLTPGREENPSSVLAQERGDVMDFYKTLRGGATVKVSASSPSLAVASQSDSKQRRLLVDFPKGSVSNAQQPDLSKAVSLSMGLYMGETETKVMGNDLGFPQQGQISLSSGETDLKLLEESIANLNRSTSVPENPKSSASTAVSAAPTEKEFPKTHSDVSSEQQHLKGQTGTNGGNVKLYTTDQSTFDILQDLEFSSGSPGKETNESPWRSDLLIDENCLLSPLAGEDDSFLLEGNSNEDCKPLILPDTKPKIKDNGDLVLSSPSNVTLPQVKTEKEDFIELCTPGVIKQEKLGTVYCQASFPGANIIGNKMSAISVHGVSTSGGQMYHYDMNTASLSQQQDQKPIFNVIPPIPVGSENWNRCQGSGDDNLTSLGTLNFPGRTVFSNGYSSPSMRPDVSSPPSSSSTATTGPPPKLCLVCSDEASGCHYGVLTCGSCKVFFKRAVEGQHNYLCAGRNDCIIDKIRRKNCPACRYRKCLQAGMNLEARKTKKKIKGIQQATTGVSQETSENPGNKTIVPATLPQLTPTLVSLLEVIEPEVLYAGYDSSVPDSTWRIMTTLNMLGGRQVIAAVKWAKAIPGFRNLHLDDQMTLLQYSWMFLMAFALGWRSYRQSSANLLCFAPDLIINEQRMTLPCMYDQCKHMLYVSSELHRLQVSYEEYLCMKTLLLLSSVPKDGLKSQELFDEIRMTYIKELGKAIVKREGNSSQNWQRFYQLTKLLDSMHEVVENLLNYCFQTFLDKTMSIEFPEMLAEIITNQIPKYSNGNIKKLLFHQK
Test: Glucocorticoid receptor competitive binding assay (fluorescence polarization, TAMRA-labeled dexamethasone probe)
Details: result in words only; IC50 values not given
Description: Compounds of the invention were evaluated for binding to the steroid receptor by a fluorescence polarization competitive binding assay.
A. Glucocorticoid Receptor Competitive Binding Assay
Step 1. Characterization of the Fluorescent Probe
The wavelengths for maximum excitation and emission of the fluorescent probe should first be measured. An example of such a probe is rhodamine (TAMRA)-labeled dexamethasone.
The affinity of the probe for the steroid receptor was then determined in a titration experiment. The fluorescence polarization value of the probe in assay buffer was measured on an SLM-8100 fluorometer using the excitation and emission maximum values described above. Aliquots of expression vector lysate were added and fluorescence polarization was measured after each addition until no further change in polarization value was observed. Non-linear least squares regression analysis was used to calculate the dissociation constant of the probe from the polarization values obtained for lysate binding to the probe.
Step 2. Screening for Inhibitors of Probe Binding
This assay uses fluorescence polarization (FP) to quantitate the ability of test compounds to compete with tetramethyl rhodamine (TAMRA)-labeled dexamethasone for binding to a human glucocorticoid receptor (GR) complex prepared from an insect expression system. The assay buffer was: 10 mM TES, 50 mM KCl, 20 mM Na2MoO4.2H2O, 1.5 mM EDTA, 0.04% w/v CHAPS, 10% v/v glycerol, 1 mM dithiothreitol, pH 7.4. Test compounds were dissolved to 1 mM in neat DMSO and then further diluted to 10× assay concentration in assay buffer supplemented with 10% v/v DMSO. Test compounds were serially diluted at 10× assay concentrations in 10% DMSO-containing buffer in 96-well polypropylene plates. Binding reaction mixtures were prepared in 96-well black Dynex microtiter plates by sequential addition of the following assay components to each well: 15 μL of 10× test compound solution, 85 μL of GR-containing baculovirus lysate diluted 1:170 in assay buffer, and 50 μL of 15 nM TAMRA-labeled dexamethasone. Positive controls were reaction mixtures containing no test compound; negative controls (blanks) were reaction mixtures containing 0.7 μM to 2 μM dexamethasone. […] IC50 values were determined by iterative non-linear curve fitting of the FP signal data to a 4-parameter logistic equation.

| SMILES | activity in the GR binding assay |
| --- | --- |
| COc1ccc(F)cc1C(C)(C)CC(O)(Cc1ccccc1Cl)C(=O)Nc1ccc2c(c1)COC2=O (centres unmarked) [2-(2-Chlorobenzyl)-4-(5-fluoro-2-methoxyphenyl)-2-hydroxy-4-methylpentanoic acid (1-oxo-1,3-dihydroisobenzofuran-5-yl)amide] | potent activity |
| CC(C)(CC(O)(Cc1ccc(F)cc1)C(=O)Nc1ccc2c(c1)COC2=O)c1cc(F)ccc1O (centres unmarked) [2-(4-Fluorobenzyl)-4-(5-fluoro-2-hydroxyphenyl)-2-hydroxy-4-methylpentanoic acid (1-oxo-1,3-dihydroisobenzofuran-5-yl)amide] | potent activity |
| COc1ccc(F)cc1C(C)(C)CC(O)(Cc1ccccc1C)C(=O)Nc1ccc2c(c1)COC2=O (centres unmarked) [4-(5-Fluoro-2-methoxyphenyl)-2-hydroxy-4-methyl-2-(2-methylbenzyl)pentanoic acid (1-oxo-1,3-dihydroisobenzofuran-5-yl)amide] | potent activity |
| CC(c1ccccc1)C(O)(CC(C)(C)c1cc(F)ccc1O)C(=O)Nc1ccc2c(c1)COC2=O (centres unmarked) [4-(5-Fluoro-2-hydroxyphenyl)-2-hydroxy-4-methyl-2-(1-phenylethyl)pentanoic acid (1-oxo-1,3-dihydroisobenzofuran-5-yl)amide] | potent activity |
| CC(C)(CC(O)(CC1CCCC1)C(=O)Nc1ccc2c(c1)COC2=O)c1cc(F)ccc1O (centres unmarked) [2-Cyclopentylmethyl-4-(5-fluoro-2-hydroxyphenyl)-2-hydroxy-4-methylpentanoic acid (1-oxo-1,3-dihydroisobenzofuran-5-yl)amide] | potent activity |
| CC(C)(CC(O)(CCc1ccccc1)C(=O)Nc1ccc2c(c1)COC2=O)c1cc(F)ccc1O (centres unmarked) [4-(5-Fluoro-2-hydroxyphenyl)-2-hydroxy-4-methyl-2-phenethylpentanoic acid (1-oxo-1,3-dihydroisobenzofuran-5-yl)amide] | potent activity |
| CC(C)(CC(O)(CC1CCCCC1)C(=O)Nc1ccc2c(c1)COC2=O)c1cc(F)ccc1O (centres unmarked) [2-Cyclohexylmethyl-4-(5-fluoro-2-hydroxyphenyl)-2-hydroxy-4-methylpentanoic acid (1-oxo-1,3-dihydroisobenzofuran-5-yl)amide] | potent activity |
| CC(C)(CC(O)(Cc1ccccc1F)C(=O)Nc1ccc2c(c1)COC2=O)c1cc(F)ccc1O (centres unmarked) [2-(2-Fluorobenzyl)-4-(5-fluoro-2-hydroxyphenyl)-2-hydroxy-4-methylpentanoic acid (1-oxo-1,3-dihydroisobenzofuran-5-yl)amide] | potent activity |
| CC(C)(CC(O)(Cc1ccccc1Br)C(=O)Nc1ccc2c(c1)COC2=O)c1cc(F)ccc1O (centres unmarked) [2-(2-Bromobenzyl)-4-(5-fluoro-2-hydroxyphenyl)-2-hydroxy-4-methylpentanoic acid (1-oxo-1,3-dihydroisobenzofuran-5-yl)amide] | potent activity |
| CC(C)(CC(O)(C(=O)Nc1ccc2c(c1)COC2=O)C1CCCC1)c1cc(F)ccc1O (centres unmarked) [2-Cyclopentyl-4-(5-fluoro-2-hydroxyphenyl)-2-hydroxy-4-methylpentanoic acid (1-oxo-1,3-dihydroisobenzofuran-5-yl)amide] | potent activity |
| COc1ccc(F)cc1C(C)(C)CC(O)(CC1CCCCC1)C(=O)Nc1ccc2c(=O)onc(C)c2c1 (centres unmarked) [2-Cyclohexylmethyl-4-(5-fluoro-2-methoxyphenyl)-2-hydroxy-4-methylpentanoic acid (4-methyl-1-oxo-1H-benzo[d][1,2]oxazin-6-yl)amide] | potent activity |
| COc1ccc(F)cc1C(C)(C)CC(O)(CC1CCCCC1)C(=O)Nc1ccc2c(c1)COC2=O (centres unmarked) [2-Cyclohexylmethyl-4-(5-fluoro-2-methoxyphenyl)-2-hydroxy-4-methylpentanoic acid (1-oxo-1,3-dihydroisobenzofuran-5-yl)amide] | potent activity |
| Cc1noc(=O)c2ccc(NC(=O)C(O)(CC3CCCCC3)CC(C)(C)c3ccccc3)cc12 (centres unmarked) [2-Cyclohexylmethyl-2-hydroxy-4-methyl-4-phenylpentanoic acid (4-methyl-1-oxo-1H-benzo[d][1,2]oxazin-6-yl)amide] | potent activity |
| CC(C)(CC(O)(Cc1ccccc1Cl)C(=O)Nc1ccc2c(c1)COC2=O)c1cc(F)ccc1O (centres unmarked) [2-(2-Chlorobenzyl)-4-(5-fluoro-2-hydroxyphenyl)-2-hydroxy-4-methylpentanoic acid (1-oxo-1,3-dihydroisobenzofuran-5-yl)amide] | potent activity |
| COc1ccc(F)cc1C(C)(C)CC(O)(Cc1ccccc1Br)C(=O)Nc1ccc2c(c1)COC2=O (centres unmarked) [2-(2-Bromobenzyl)-4-(5-fluoro-2-methoxyphenyl)-2-hydroxy-4-methylpentanoic acid (1-oxo-1,3-dihydroisobenzofuran-5-yl)amide] | potent activity |
| COc1ccc(F)cc1C(C)(C)CC(O)(Cc1ccccc1F)C(=O)Nc1ccc2c(c1)COC2=O (centres unmarked) [2-(2-Fluorobenzyl)-4-(5-fluoro-2-methoxyphenyl)-2-hydroxy-4-methylpentanoic acid (1-oxo-1,3-dihydroisobenzofuran-5-yl)amide] | potent activity |
| COc1ccc(F)cc1C(C)(C)CC(O)(Cc1cccc(F)c1)C(=O)Nc1ccc2c(c1)COC2=O (centres unmarked) [2-(3-Fluorobenzyl)-4-(5-fluoro-2-methoxyphenyl)-2-hydroxy-4-methylpentanoic acid (1-oxo-1,3-dihydroisobenzofuran-5-yl)amide] | potent activity |
| Cc1noc(=O)c2ccc(NC(=O)C(O)(Cc3ccccc3)CC(C)(C)c3cc(F)ccc3O)cc12 (centres unmarked) [2-Benzyl-4-(5-fluoro-2-hydroxyphenyl)-2-hydroxy-4-methylpentanoic acid (4-methyl-1-oxo-1H-benzo[d][1,2]oxazin-6-yl)amide] | potent activity |
| CC(C)(CC(O)(CC(C)(C)c1ccccc1)C(=O)Nc1ccc2c(c1)COC2=O)c1ccccc1 [2-Hydroxy-4-methyl-2-(2-methyl-2-phenylpropyl)-4-phenylpentanoic acid (1-oxo-1,3-dihydroisobenzofuran-5-yl)amide] | potent activity |
| COc1ccc(F)cc1C(C)(C)CC(O)(Cc1ccccc1)C(=O)Nc1ccc2c(c1)COC2=O (centres unmarked) [2-Benzyl-4-(5-fluoro-2-methoxyphenyl)-2-hydroxy-4-methylpentanoic acid (1-oxo-1,3-dihydroisobenzofuran-5-yl)amide] | potent activity |
| Cc1ccccc1CC(O)(CC(C)(C)c1cc(F)ccc1O)C(=O)Nc1ccc2c(c1)COC2=O (centres unmarked) [4-(5-Fluoro-2-hydroxyphenyl)-2-hydroxy-4-methyl-2-(2-methylbenzyl)pentanoic acid (1-oxo-1,3-dihydroisobenzofuran-5-yl)amide] | potent activity |
| CC(C)(CC(O)(Cc1ccccc1O)C(=O)Nc1ccc2c(c1)COC2=O)c1cc(F)ccc1O (centres unmarked) [4-(5-Fluoro-2-hydroxyphenyl)-2-hydroxy-2-(2-hydroxybenzyl)-4-methylpentanoic acid (1-oxo-1,3-dihydroisobenzofuran-5-yl)amide] | potent activity |
| COc1ccc(F)cc1C(C)(C)CC(O)(Cc1ccccc1)C(=O)Nc1ccc2c(=O)onc(C)c2c1 (centres unmarked) [2-Benzyl-4-(5-fluoro-2-methoxyphenyl)-2-hydroxy-4-methylpentanoic acid (4-methyl-1-oxo-1H-benzo[d][1,2]oxazin-6-yl)amide] | potent activity |
